Measured values as given in patent US20260240873A1, “USE OF C[…] THE TREATMENT OF TUBEROUS SCLEROSIS COMPLEX” (GW Research Limited, priority 2019, published 2026).

Assays:
seizures [1] = conditions: 200 mg/day pure CBD; twelve institutionalized adult patients; open label; cited from earlier work
TSC-associated seizures = test: Double-blind, randomized, placebo-controlled trial: TSC-associated seizure frequency; assay type: in vivo, human; conditions: for Mean number of TSC-associated seizures per 28 days, treatment period: 16-week treatment period, add-on to AEDs; for Mean number of TSC-associated seizures per 28 days, baseline period: 4-week baseline before treatment; for Reduction in TSC-associated seizures over the maintenance period: 12-week maintenance period, placebo 30%; for Patients who experienced a ≥50% reduction in seizures, number (%): placebo 17 (22.4%); for TSC-associated seizures, estimated ratio CBD/Placebo / TSC-associated seizures, percentage reduction CBD/Placebo: treatment period
Procedure: (§1) The blinded phase of the study was a randomized, double-blind, parallel-group, 16-week comparison of two doses of CBD versus placebo. Patients completed a 1-week screening period and a 4-week baseline period before they were randomized to receive 25 mg/kg/day CBD, 50 mg/kg/day CBD or equivalent volumes of placebo. Randomization was stratified by age according to the following ranges: 1-6, 7-11, 12-17 years and 18+ years.
(§2) Patients began a 4-week dose escalation period, titrating up to their assigned dose, before continuing on a stable dose of blinded investigational medicinal product (IMP) for 12 weeks.
(§3) Patients were required to perform daily interactive voice response system (IVRS) telephone calls to record seizure information. They were also required to complete a paper diary daily with information about IMP and concomitant AED administration.
The primary endpoint was the change in number of TSC-associated seizures during the treatment period (maintenance and titration) compared to baseline in patients taking CBD compared with placebo.
(§4) TSC-associated seizures included: focal motor seizures without impairment of consciousness or awareness; focal seizures with impairment of consciousness or awareness; focal seizures evolving to bilateral generalized convulsive seizures and generalized seizures (tonic-clonic, tonic, clonic or atonic) that are countable.
Secondary endpoints included the number of patients considered treatment responders which was defined as those with a >50% reduction in TSC-associated seizure frequency;
Antiepileptic efficacy measures were also determined and these included: number of patients considered treatment responders defined as those with a ≥25%, ≥50%, ≥75% or 100% reduction in TSC-associated seizure frequency; number of patients experiencing a >25% worsening, −25 to +25% no change, 25-50% improvement, 50-75% improvement or >75% improvement in TSC-associated seizure frequency; change in number of TSC-associated seizure-free days; and change in number of ‘other’ seizures (absence, myoclonic, focal sensory and infantile/epileptic spasms).

[2] = Double-blind, randomized, placebo-controlled trial: Subject/Caregiver Global Impression of Change; assay type: in vivo, human; conditions: for Subject/caregiver global impression of change: Much improved, number (%) / Subject/caregiver global impression of change: Much worse, number (%) / Subject/caregiver global impression of change: No change, number (%) / Subject/caregiver global impression of change: Slightly improved, number (%) / Subject/caregiver global impression of change: Slightly worse, number (%) / Subject/caregiver global impression of change: Very much worse, number (%) / Subject/caregiver global impression of change: Very much improved, number (%): data from last visit
Procedure: as §1
(§5) change in Caregiver Global Impression of Change (CGIC) or Subject Global Impression of Change (SGIC) score; and change in total seizures.

generalized epilepsy = conditions: eight adult patients with generalized epilepsy; cited from earlier work
seizures [3] = conditions: 200 mg/day pure CBD; four adult patients; cited from earlier work
seizures [4] = conditions: mice; after pro-convulsant drugs or an electric current; cited from earlier work
total seizures = test: Double-blind, randomized, placebo-controlled trial: total seizure count; assay type: in vivo, human; conditions: for Total seizure count, mean number of seizures per 28 days, treatment period: 16-week treatment period; for Total seizure count, mean number of seizures per 28 days, baseline period: baseline before treatment; for Reduction of seizures over the maintenance period (paragraph after the total seizure tables): 12-week maintenance period, placebo 30.1%
Procedure: as §1, §2, §3, §5
as §4, with “In addition to the TSC-associated” for “TSC-associated”, “(focal” for “included: focal”, “countable) the total seizure count was recorded in the trial.” for “countable.”

[5] = Double-blind, randomized, placebo-controlled trial: safety and tolerability (adverse events, ALT); assay type: in vivo, human; conditions: for Patients with alanine aminotransferase (ALT) elevations >3 upper level of normal (ULN): none on placebo
Procedure: as §1
Safety and tolerability measures that were recorded included: adverse events; clinical laboratory parameters; 12-lead electrocardiogram (ECG); physical examination parameters (including height and weight); vital signs; Columbia-Suicide Severity Rating Scale (C-SSRS; 19+ years) or C-SSRS Children's (6-18 years) score, where applicable; number of inpatient hospitalizations due to epilepsy; abuse liability and effects on menstruation cycles (in females).

[6] = CBD 25 mg/kg/day group (n = 75)
[7] = CBD 25 mg/kg/day, p-value 0.0009
[8] = CBD 50 mg/kg/day group (n = 73)
[9] = CBD 50 mg/kg/day, p-value 0.0018
[10] = CBD 50 mg/kg/day, treatment period, p-value 0.0018

## C=C(C)[C@@H]1CCC(C)=C[C@H]1c1c(O)cc(CCCCC)cc1O [CBD, cannabidiol]
Seizures [1]
  Control of seizures: ineffective
TSC-associated seizures; CBD 25 mg/kg/day
  Patients with complete seizure freedom (100% reduction in TSC-associated seizure frequency): 4 patients
TSC-associated seizures; CBD 25 mg/kg/day (n = 75)
  TSC-associated seizures, estimated ratio Treatment period/Baseline period: 0.514
  TSC-associated seizures, percentage reduction Treatment period/Baseline period: 48.6%
  Mean number of TSC-associated seizures per 28 days, treatment period: 26.5 per 28 days
TSC-associated seizures; [6]
  Mean number of TSC-associated seizures per 28 days, baseline period: 51.6 per 28 days
TSC-associated seizures; CBD 25 mg/kg/day, p=0.0004
  Reduction in TSC-associated seizures over the maintenance period: 55.8%
TSC-associated seizures; CBD 25 mg/kg/day, p=0.0692
  Patients who experienced a ≥50% reduction in seizures, number (%): 27 (36.0%) patients
TSC-associated seizures; [7]
  TSC-associated seizures, estimated ratio CBD/Placebo: 0.699
  TSC-associated seizures, percentage reduction CBD/Placebo: 30.1%
TSC-associated seizures; CBD 50 mg/kg/day
  Patients with complete seizure freedom (100% reduction in TSC-associated seizure frequency): 2 patients
TSC-associated seizures; CBD 50 mg/kg/day (n = 73)
  TSC-associated seizures, estimated ratio Treatment period/Baseline period: 0.525
  TSC-associated seizures, percentage reduction Treatment period/Baseline period: 47.5%
  Mean number of TSC-associated seizures per 28 days, treatment period: 34.9 per 28 days
TSC-associated seizures; [8]
  Mean number of TSC-associated seizures per 28 days, baseline period: 66.3 per 28 days
TSC-associated seizures; CBD 50 mg/kg/day, p=0.0005
  Reduction in TSC-associated seizures over the maintenance period: 55.8%
TSC-associated seizures; CBD 50 mg/kg/day, p=0.0245
  Patients who experienced a ≥50% reduction in seizures, number (%): 29 (39.2%) patients
TSC-associated seizures; [9]
  TSC-associated seizures, estimated ratio CBD/Placebo: 0.715
  TSC-associated seizures, percentage reduction CBD/Placebo: 28.5%
TSC-associated seizures; both 25 and 50 mg/kg/day
  Number of TSC-associated seizures (conclusion): significantly reduce
[2]; 25 mg/kg/day group
  Subject/caregiver's global impression of change (conclusion): significant efficacy
[2]; CBD 25 mg/kg/day
  Subject/caregiver global impression of change: Much improved, number (%): 12 (18.2%)
  Subject/caregiver global impression of change: Much worse, number (%): 2 (3.0%)
  Subject/caregiver global impression of change: No change, number (%): 14 (21.2%)
  Subject/caregiver global impression of change: Slightly improved, number (%): 23 (34.8%)
  Subject/caregiver global impression of change: Slightly worse, number (%): 4 (6.1%)
  Subject/caregiver global impression of change: Very much worse, number (%): 1 (1.5%)
[2]; CBD 25 mg/kg/day, overall p-value 0.0074
  Subject/caregiver global impression of change: Very much improved, number (%): 10 (15.2%)
[2]; CBD 50 mg/kg/day
  Subject/caregiver global impression of change: Much improved, number (%): 12 (18.2%)
  Subject/caregiver global impression of change: Much worse, number (%): 3 (4.5%)
  Subject/caregiver global impression of change: No change, number (%): 14 (21.2%)
  Subject/caregiver global impression of change: Slightly improved, number (%): 21 (31.8%)
  Subject/caregiver global impression of change: Slightly worse, number (%): 6 (9.1%)
  Subject/caregiver global impression of change: Very much worse, number (%): 1 (1.5%)
[2]; CBD 50 mg/kg/day, overall p-value 0.0580
  Subject/caregiver global impression of change: Very much improved, number (%): 9 (13.6%)
Generalized epilepsy
  Reduction of seizures: marked reduction of seizures in 4 of the patients
Seizures [3]
  Seizure freedom: two of the four patients became seizure free
Seizures [4]
  Prevention of seizures: able to prevent seizures
Total seizures; CBD 25 mg/kg/day (n = 75)
  Total seizures, estimated ratio Treatment period/Baseline period: 0.519
  Total seizures, percentage reduction Treatment period/Baseline period: 48.1%
  Total seizure count, mean number of seizures per 28 days, treatment period: 28.0 per 28 days
Total seizures; [6]
  Total seizure count, mean number of seizures per 28 days, baseline period: 53.9 per 28 days
Total seizures; CBD 25 mg/kg/day, p=0.0007
  Reduction of seizures over the maintenance period (paragraph after the total seizure tables): 55%
Total seizures; CBD 25 mg/kg/day, treatment period, p-value 0.0013
  Total seizures, estimated ratio CBD/Placebo: 0.709
Total seizures; CBD 50 mg/kg/day (n = 73)
  Total seizures, estimated ratio Treatment period/Baseline period: 0.524
  Total seizures, percentage reduction Treatment period/Baseline period: 47.6%
  Total seizure count, mean number of seizures per 28 days, treatment period: 39.6 per 28 days
Total seizures; [8]
  Total seizure count, mean number of seizures per 28 days, baseline period: 75.7 per 28 days
Total seizures; CBD 50 mg/kg/day, p=0.0005
  Reduction of seizures over the maintenance period (paragraph after the total seizure tables): 55.9%
Total seizures; [10]
  Total seizures, estimated ratio CBD/Placebo: 0.716
  Total seizures, percentage reduction CBD/Placebo: 28.4%
Total seizures; both 25 and 50 mg/kg/day
  Total number of seizures (conclusion): significantly reduce
[5]; 50 mg/kg/day group compared to 25 mg/kg/day group
  Incidence of diarrhoea, vomiting, transaminase elevations, somnolence, and rash: higher in the 50 mg/kg/day group
[5]; CBD 25 mg/kg/day (n = 75)
  Treatment emergent adverse event, maximal severity Mild, number (%): 37 (49.3%)
  Treatment emergent adverse event, maximal severity Moderate, number (%): 26 (34.7%)
  Treatment emergent adverse event, maximal severity Severe, number (%): 7 (9.3%)
[5]; CBD 25 mg/kg/day
  Patients with alanine aminotransferase (ALT) elevations >3 upper level of normal (ULN): 12%
[5]; CBD 50 mg/kg/day (n = 73)
  Treatment emergent adverse event, maximal severity Mild, number (%): 29 (39.7%)
  Treatment emergent adverse event, maximal severity Moderate, number (%): 35 (47.9%)
  Treatment emergent adverse event, maximal severity Severe, number (%): 9 (12.3%)
[5]; CBD 50 mg/kg/day
  Patients with alanine aminotransferase (ALT) elevations >3 upper level of normal (ULN): 25%
[5]; patients on concomitant valproic acid and on the higher dose of CBD
  Rate of ALT elevations: higher rate of ALT elevations
[5]; patients receiving CBD, 25 or 50 mg/kg/day
  Most common adverse reactions (≥10% and greater than placebo): somnolence; decreased appetite; diarrhoea; vomiting; transaminase elevations; pyrexia; and infections
